Like-named read-outs stand apart in the source and are kept apart here.
Columns and labels:
Format in all cases: biochemical
PDE9A2 = target: T1, PDE9A2 (Homo sapiens, UniProt O76083); assay: Phosphodiesterase enzyme screening assay, PDE9A2
T1 construct: purchased Reaction Biology Corporation, Malvern, Pa
Method in brief: (§1)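 Read-out was electrophoretic mobility-shift separation on chip of fluorescent cyclic nucleotide from 5′-AMP/5′-GMP, with inhibition or enhancement judged against control wells (quadruplicate means). Reactions lasted 1 h at RT in HEPES pH 7.5 buffer with MgCl2, DTT and Brij plus 4.0 μM cGMP substrate, then were halted with EDTA stop buffer.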

PDE1A = target: T2, PDE1A (Homo sapiens, UniProt P54750); assay: Phosphodiesterase enzyme screening assay, PDE1A
T2 construct: purchased Reaction Biology Corporation, Malvern, Pa
T2 sequence (P54750 whole entry): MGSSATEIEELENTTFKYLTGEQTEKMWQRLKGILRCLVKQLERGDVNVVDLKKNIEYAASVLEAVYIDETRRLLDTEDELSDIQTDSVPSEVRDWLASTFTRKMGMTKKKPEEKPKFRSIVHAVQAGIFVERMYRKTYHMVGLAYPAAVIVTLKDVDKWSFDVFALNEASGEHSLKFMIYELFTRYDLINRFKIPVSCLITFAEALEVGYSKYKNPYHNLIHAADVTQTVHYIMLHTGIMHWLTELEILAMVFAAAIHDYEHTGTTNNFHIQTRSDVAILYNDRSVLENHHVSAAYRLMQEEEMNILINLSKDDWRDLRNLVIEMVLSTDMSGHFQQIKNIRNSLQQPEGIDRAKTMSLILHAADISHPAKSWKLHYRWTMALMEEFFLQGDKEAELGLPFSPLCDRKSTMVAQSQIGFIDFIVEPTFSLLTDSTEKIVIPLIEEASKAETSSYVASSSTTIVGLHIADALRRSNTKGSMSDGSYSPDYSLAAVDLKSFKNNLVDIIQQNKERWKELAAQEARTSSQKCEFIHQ
Method in brief: as §1

PDE1B = target: T3, PDE1B (Homo sapiens, UniProt Q01064); assay: Phosphodiesterase enzyme screening assay, PDE1B
T3 construct: purchased Reaction Biology Corporation, Malvern, Pa
T3 sequence (Q01064 whole entry): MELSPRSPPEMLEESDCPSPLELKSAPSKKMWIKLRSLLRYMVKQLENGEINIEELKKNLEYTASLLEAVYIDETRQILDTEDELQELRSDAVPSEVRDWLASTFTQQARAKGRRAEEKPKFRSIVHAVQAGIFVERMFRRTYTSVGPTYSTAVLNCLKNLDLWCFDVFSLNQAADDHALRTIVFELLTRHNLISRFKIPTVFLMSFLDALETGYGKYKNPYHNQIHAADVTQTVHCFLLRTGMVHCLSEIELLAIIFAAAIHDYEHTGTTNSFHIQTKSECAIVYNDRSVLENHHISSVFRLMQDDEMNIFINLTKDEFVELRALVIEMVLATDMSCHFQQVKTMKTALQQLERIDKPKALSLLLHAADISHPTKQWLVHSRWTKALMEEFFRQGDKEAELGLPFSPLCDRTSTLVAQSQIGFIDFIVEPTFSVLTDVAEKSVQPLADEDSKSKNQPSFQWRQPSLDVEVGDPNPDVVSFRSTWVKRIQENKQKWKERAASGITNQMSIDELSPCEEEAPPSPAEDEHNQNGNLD
Method in brief: as §1

[1] = ratio of IC50 values, PDE1A versus PDE9A2, value greater than 1 indicates greater selectivity for PDE9A2
[2] = ratio of IC50 values, PDE1B versus PDE9A2, value greater than 1 indicates greater selectivity for PDE9A2
[3] = ratio of IC50 values, value greater than 1 indicates greater selectivity for PDE9A2
[4] = Table 1, 10 concentrations, 4.0 μM cGMP substrate, 1 hour at R.T., read-out: Band (PDE9A2 IC50)
[5] = Table 1, ratio of IC50 values, value greater than 1 indicates greater selectivity for PDE9A2
[6] = IC50 band, 4.0 μM cGMP substrate, 1 hour at R.T.
[7] = ratio of IC50 values PDE1A vs PDE9A2, value greater than 1 indicates greater selectivity for PDE9A2
[8] = ratio of IC50 values PDE1B vs PDE9A2, value greater than 1 indicates greater selectivity for PDE9A2
[9] = Table 2, 10 concentrations, 4.0 μM cGMP substrate, 1 hour at R.T., read-out: Band (PDE9A2 IC50)
[10] = Table 2, ratio of IC50 values, value greater than 1 indicates greater selectivity for PDE9A2

T1 sequence (O76083 1-533 isoform O76083-2): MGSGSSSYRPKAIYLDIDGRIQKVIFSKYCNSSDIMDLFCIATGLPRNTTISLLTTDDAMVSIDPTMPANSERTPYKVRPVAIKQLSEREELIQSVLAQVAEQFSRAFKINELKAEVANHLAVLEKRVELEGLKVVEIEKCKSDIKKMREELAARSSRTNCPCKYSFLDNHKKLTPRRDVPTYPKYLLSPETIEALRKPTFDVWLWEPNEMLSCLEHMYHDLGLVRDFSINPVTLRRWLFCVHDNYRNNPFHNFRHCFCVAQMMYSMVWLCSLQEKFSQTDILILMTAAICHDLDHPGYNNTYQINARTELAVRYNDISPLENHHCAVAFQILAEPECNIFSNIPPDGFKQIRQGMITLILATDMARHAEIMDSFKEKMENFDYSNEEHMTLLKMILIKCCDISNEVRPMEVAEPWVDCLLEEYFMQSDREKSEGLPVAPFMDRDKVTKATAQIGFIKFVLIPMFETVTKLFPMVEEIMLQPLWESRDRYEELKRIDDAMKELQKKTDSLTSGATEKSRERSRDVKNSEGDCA

Cc1ccccc1-c1ncc2c(=O)[nH]c(C3CN(Cc4ccc(F)cc4)CC3C)nn12 (single isomer, unassigned; (+)) [(+)-2-((3,4-trans)-1-(4-fluorobenzyl)-4-methylpyrrolidin-3-yl)-7-(o-tolyl)imidazo[5,1-f][1,2,4]triazin-4(3H)-one]
IC50 (PDE9A2; read-out: Band (PDE9A2 IC50)): < 1000 nM
PDE1A selectivity (versus PDE9A2) (PDE1A; [1]): 963
PDE1B selectivity (versus PDE9A2) (PDE1B; [2]): 744

CC1CN(CC2CCOCC2)CC1c1nn2c(C3CCOCC3)ncc2c(=O)[nH]1 (single isomer, unassigned; (+)) [(+)-2-((3,4-trans)-4-methyl-1-((tetrahydro-2H-pyran-4-yl)methyl)pyrrolidin-3-yl)-7-(tetrahydro-2H-pyran-4-yl)imidazo[5,1-f][1,2,4]triazin-4(3H)-one]
IC50 (PDE9A2; read-out: Band (PDE9A2 IC50)): < 1000 nM
PDE1A selectivity (versus PDE9A2) (PDE1A; [3]): 77
PDE1B selectivity (versus PDE9A2) (PDE1B; [3]): 93

CC1CN(Cc2ccc(Br)cc2)CC1c1nn2c(C3CCOCC3)ncc2c(=O)[nH]1 (single isomer, unassigned; (+)) [(+)-2-((3,4-trans)-1-(4-bromobenzyl)-4-methylpyrrolidin-3-yl)-7-(tetrahydro-2H-pyran-4-yl)imidazo[5,1-f][1,2,4]triazin-4(3H)-one]
IC50 (PDE9A2; [4]): < 1000 nM
PDE1A selectivity (versus PDE9A2) (PDE1A; [5]): 476
PDE1B selectivity (versus PDE9A2) (PDE1B; [5]): 1105

Cc1cc(F)ccc1-c1ncc2c(=O)[nH]c(C3CN(Cc4ccc(F)cc4)CC3C)nn12 (single isomer, unassigned; (+)) [(+)-7-(4-fluoro-2-methylphenyl)-2-((3,4-trans)-1-(4-fluorobenzyl)-4-methylpyrrolidin-3-yl)imidazo[5,1-f][1,2,4]triazin-4(3H)-one]
IC50 (PDE9A2; [6]): < 1000 nM
PDE1A selectivity (versus PDE9A2) (PDE1A; [7]): 345
PDE1B selectivity (versus PDE9A2) (PDE1B; [8]): 493

CC1CN(Cc2nccc(C3CC3)n2)CC1c1nn2c(C3CCOCC3)ncc2c(=O)[nH]1 (single isomer, unassigned; (+)) [(+)-2-((3,4-trans)-1-((4-cyclopropylpyrimidin-2-yl)methyl)-4-methylpyrrolidin-3-yl)-7-(tetrahydro-2H-pyran-4-yl)imidazo[5,1-f][1,2,4]triazin-4(3H)-one]
IC50 (PDE9A2; [9]): < 1000 nM
PDE1A selectivity (versus PDE9A2) (PDE1A; [10]): 229
PDE1B selectivity (versus PDE9A2) (PDE1B; [10]): 403

Cc1cc(F)ccc1-c1ncc2c(=O)[nH]c(C3CN(Cc4cccnc4)CC3C)nn12 (single isomer, unassigned; (+)) [(+)-7-(4-fluoro-2-methylphenyl)-2-((3,4-trans)-4-methyl-1-(pyridin-3-ylmethyl)pyrrolidin-3-yl)imidazo[5,1-f][1,2,4]triazin-4(3H)-one]
IC50 (PDE9A2; [6]): < 1000 nM
PDE1A selectivity (versus PDE9A2) (PDE1A; [7]): 452
PDE1B selectivity (versus PDE9A2) (PDE1B; [8]): 492

CC1CN(Cc2ncc3ccccc3n2)CC1c1nn2c(C3CCOCC3)ncc2c(=O)[nH]1 (single isomer, unassigned; (-)) [(−)-2-((3,4-trans)-4-methyl-1-(quinazolin-2-ylmethyl)pyrroli] [(−)-2-((3,4-trans)-4-methyl-1-(quinazolin-2-ylmethyl)pyrrolidin-3-yl)-7-(tetrahydro-2H-pyran-4-yl)imidazo[5,1-f][1,2,4]triazin-4(3H)-one]
IC50 (PDE9A2; [4]): < 1000 nM
PDE1A selectivity (versus PDE9A2) (PDE1A; [5]): 1213
PDE1B selectivity (versus PDE9A2) (PDE1B; [5]): 2000

CC1CN(Cc2nccc(N(C)C)n2)CC1c1nn2c(C3CCOCC3)ncc2c(=O)[nH]1 (single isomer, unassigned; (+)) [(+)-2-((3,4-trans)-1-((4-(dimethylamino)pyrimidin-2-yl)methyl)-4-methylpyrrolidin-3-yl)-7-(tetrahydro-2H-pyran-4-yl)imidazo[5,1-f][1,2,4]triazin-4(3H)-one]
IC50 (PDE9A2; [9]): < 1000 nM
PDE1A selectivity (versus PDE9A2) (PDE1A; [10]): 117
PDE1B selectivity (versus PDE9A2) (PDE1B; [10]): 177

Cc1ccc(F)cc1-c1ncc2c(=O)[nH]c(C3CN(Cc4ccc(Cl)cc4)CC3C)nn12 (single isomer, unassigned; (-)) [(−)-2-((3,4-trans)-1-(4-chlorobenzyl)-4-methylpyrrolidin-3-yl)-7-(5-fluoro-2-methylphenyl)imidazo[5,1-f][1,2,4]triazin-4(3H)-one]
IC50 (PDE9A2; [6]): < 1000 nM
PDE1A selectivity (versus PDE9A2) (PDE1A; [7]): 3375
PDE1B selectivity (versus PDE9A2) (PDE1B; [8]): 1735

C[C@@H]1CN(Cc2cn3ncccc3n2)C[C@H]1c1nn2c(C3CCOCC3)ncc2c(=O)[nH]1 (relative stereo) [(+)-2-((3,4-trans)-1-(imidazo[1,2-b]pyridazin-2-ylmethyl)-4-methylpyrrolidin-3-yl)-7-(tetrahydro-2H-pyran-4-yl)imidazo[5,1-f][1,2,4]triazin-4(3H)-one]
IC50 (PDE9A2; [4]): < 1000 nM
PDE1A selectivity (versus PDE9A2) (PDE1A; [5]): 1005
PDE1B selectivity (versus PDE9A2) (PDE1B; [5]): 1413

CC1CN(Cc2ccc(C#N)cc2)CC1c1nn2c(C3CCOCC3)ncc2c(=O)[nH]1 (single isomer, unassigned; (-)) [(−)-4-(((3,4-trans)-3-methyl-4-(4-oxo-7-(tetrahydro-2H-pyran-4-yl)-3,4-dihydroimidazo[5,1-f][1,2,4]triazin-2-yl)pyrrolidin-1-yl)methyl)benzonitrile]
IC50 (PDE9A2; [4]): < 1000 nM
PDE1A selectivity (versus PDE9A2) (PDE1A; [5]): 640
PDE1B selectivity (versus PDE9A2) (PDE1B; [5]): 1445

CC1CN(Cc2ccccc2)CC1c1nn2c(-c3cccc(F)c3)ncc2c(=O)[nH]1 (single isomer, unassigned; (+)) [(+)-2-((3,4-trans)-1-benzyl-4-methylpyrrolidin-3-yl)-7-(3-fluorophenyl)imidazo[5,1-f][1,2,4]triazin-4(3H)-one]
IC50 (PDE9A2; read-out: Band (PDE9A2 IC50)): < 1000 nM
PDE1A selectivity (versus PDE9A2) (PDE1A; [1]): 70
PDE1B selectivity (versus PDE9A2) (PDE1B; [2]): 113

CC1CN(Cc2nc3ccccc3n2C)CC1c1nn2c(C3CCOCC3)ncc2c(=O)[nH]1 (single isomer, unassigned; (+)) [(+)-2-((3,4-trans)-4-methyl-1-((1-methyl-1H-benzo[d]imidazol-2-yl)methyl)pyrrolidin-3-yl)-7-(tetrahydro-2H-pyran-4-yl)imidazo[5,1-f][1,2,4]triazin-4(3H)-one]
IC50 (PDE9A2; [4]): < 1000 nM
PDE1A selectivity (versus PDE9A2) (PDE1A; [5]): 181
PDE1B selectivity (versus PDE9A2) (PDE1B; [5]): 356

Cc1cc(F)ccc1-c1ncc2c(=O)[nH]c(C3CN(Cc4nc5ccccc5[nH]4)CC3C)nn12 (single isomer, unassigned; (+)) [(+)-2-((3,4-trans)-1-((1H-benzo[d]imidazol-2-yl)methyl)-4-methylpyrrolidin-3-yl)-7-(4-fluoro-2-methylphenyl)imidazo[5,1-f][1,2,4]triazin-4(3H)-one]
IC50 (PDE9A2; [6]): < 1000 nM
PDE1A selectivity (versus PDE9A2) (PDE1A; [7]): 1438
PDE1B selectivity (versus PDE9A2) (PDE1B; [8]): 2500

CC1CN(Cc2cc(Cl)cc(Cl)c2)CC1c1nn2c(C3CCOCC3)ncc2c(=O)[nH]1 (single isomer, unassigned; (+)) [(+)-2-((3,4-trans)-1-(3,5-dichlorobenzyl)-4-methylpyrrolidin-3-yl)-7-(tetrahydro-2H-pyran-4-yl)imidazo[5,1-f][1,2,4]triazin-4(3H)-one]
IC50 (PDE9A2; [4]): < 1000 nM
PDE1A selectivity (versus PDE9A2) (PDE1A; [5]): 93
PDE1B selectivity (versus PDE9A2) (PDE1B; [5]): 92

CC1CN(Cc2ccn(C)n2)CC1c1nn2c(C3CCOCC3)ncc2c(=O)[nH]1 (single isomer, unassigned; (+)) [(+)-2-((3,4-trans)-4-methyl-1-((1-methyl-1H-pyrazol-3-yl)methyl)pyrrolidin-3-yl)-7-(tetrahydro-2H-pyran-4-yl)imidazo[5,1-f][1,2,4]triazin-4(3H)-one]
IC50 (PDE9A2; Table 3, 4.0 μM cGMP substrate, 1 hour at R.T., read-out: Band (PDE9A2 IC50)): < 1000 nM
PDE1A selectivity (versus PDE9A2) (PDE1A; ratio of IC50 values, PDE1A versus PDE9A2, value greater than 1 = greater selectivity for PDE9A2): 628
PDE1B selectivity (versus PDE9A2) (PDE1B; ratio of IC50 values, PDE1B versus PDE9A2, value greater than 1 = greater selectivity for PDE9A2): 721

Cc1cc(CN2CC(C)C(c3nn4c(C5CCOCC5)ncc4c(=O)[nH]3)C2)n(C)n1 (single isomer, unassigned; (+)) [(+)-2-((3,4-trans)-1-((1,3-dimethyl-1H-pyrazol-5-yl)methyl)-4-methylpyrrolidin-3-yl)-7-(tetrahydro-2H-pyran-4-yl)imidazo[5,1-f][1,2,4]triazin-4(3H)-one]
IC50 (PDE9A2; [4]): < 1000 nM
PDE1A selectivity (versus PDE9A2) (PDE1A; [5]): 487
PDE1B selectivity (versus PDE9A2) (PDE1B; [5]): 670

CC1CN(Cc2ccc(F)cc2)CC1c1nn2c(C3CCCC3)ncc2c(=O)[nH]1 (single isomer, unassigned; (+)) [(+)-7-cyclopentyl-2-((3,4-trans)-1-(4-fluorobenzyl)-4-methylpyrrolidin-3-yl)imidazo[5,1-f][1,2,4]triazin-4(3H)-one]
IC50 (PDE9A2; read-out: Band (PDE9A2 IC50)): < 1000 nM
PDE1A selectivity (versus PDE9A2) (PDE1A; [1]): 41
PDE1B selectivity (versus PDE9A2) (PDE1B; [2]): 104

CC1CN(Cc2cccc(Br)c2)CC1c1nn2c(C3CCOCC3)ncc2c(=O)[nH]1 (single isomer, unassigned; (+)) [(+)-2-((3,4-trans)-1-(3-bromobenzyl)-4-methylpyrrolidin-3-yl)-7-(tetrahydro-2H-pyran-4-yl)imidazo[5,1-f][1,2,4]triazin-4(3H)-one]
IC50 (PDE9A2; [4]): < 1000 nM
PDE1A selectivity (versus PDE9A2) (PDE1A; [5]): 243
PDE1B selectivity (versus PDE9A2) (PDE1B; [5]): 92
